Test in all cases: NCI anticancer screen, dose series, 48 h
Test [1] concerns UACC-257 melanoma.
In test [2] the test system is SN12C renal.
The test system of test [3] is COLO 205 colon.
Test [4] concerns ACHN renal.
The subject of test [5] is MDA-MB-435.
Test [6] deals with MDA-MB-231 breast.
Test [7] concerns SK-OV-3 ovarian.
Test [8] has as its system LOX IMVI melanoma.
Test [9] concerns NCI-H23 lung.
Test [10] concerns A549 NSCLC.
Test [11] deals with 786-0 renal.
Test [12] has as its system PC-3 prostate.
Test [13] has as its system HCC-2998 colon.
The test system of test [14] is U251 CNS.
Test [15] has as its system HT29 colon.
Test [16] has as its system SNB-19 CNS.
Test [17] deals with DU-145 prostate.
For test [18], the system named is OVCAR-5 ovarian.

The values that follow come from PubChem BioAssay (NCI).

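Results reflect a 48-hour exposure of cells in 96-well plates to compound at five concentrations. At the TGI there is no net growth.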 A value given as a limit tells only on which side of the number the result lay.

On to `CCOC(=O)CO/N=C1/C(c2c(O)[nH]c3ccccc23)=Nc2ccccc21`, for which the TGI in [1] was over 100 µM; in test [2], over 100 µM; in test [3], over 100 µM; in test [4] it was over 100 µM; in test [5] it was over 100 µM; in test [6], 43.3 µM. Moreover, the TGI in test [7] is 49.2 µM; in test [8] it was over 100 µM; in test [9], over 100 µM; in [10], over 100 µM; in [11] it was over 100 µM; in test [12], over 100 µM. The TGI is over 100 µM in test [13]; 66.1 µM in test [14]; over 100 µM in test [15]; 89.4 µM in test [16]; over 100 µM in test [17]; over 100 µM in [18].

As for `COc1cc(C(C)=O)cc(C(=O)N(C(C)C)C(C)C)c1[Si](C)(C)C`, the TGI in [1] is over 100 µM; in test [3] it was over 100 µM; in test [4], over 100 µM; in test [5], over 100 µM; in [6], over 100 µM; in [7], 99.2 µM. The TGI in test [8], in test [9], in test [10], in test [11], in [12] and in [14] was over 100 µM throughout. Besides, the TGI in test [16] and in [17] was over 100 µM in each case.

For `COc1ccc(OC)c(C(Cc2ccnc3ccccc23)Cc2ccnc3ccccc23)c1`, the TGI in [1], in test [2], in [3], in [4], in [5] and in test [6] was over 10 µM in each case. In addition, the TGI in test [7], in [8], in test [9], in test [10], in test [11] and in [12] was over 10 µM each time. Also, the TGI in test [13], in [14], in test [15], in test [16], in test [17] and in [18] was over 10 µM throughout.

Consider `CCCCSC1=N/C(=C\c2ccco2)C(Cl)=N1`, for which the TGI in test [1], in test [2], in test [3], in test [4], in [5] and in [6] was over 100 µM in each case. The TGI in [7], in [9], in test [10], in test [11], in test [12] and in [13] was over 100 µM each time. In addition, the TGI in [14], in [15], in [16], in [17] and in test [18] was over 100 µM throughout.

As to `Fc1ccc(C(=C2CCN(CCc3ccc4[nH]c(=S)[nH]c4c3)CC2)c2ccc(F)cc2)cc1`, the TGI worked out at 2.4 µM in [1]; 9.25 µM in test [2]; 3.31 µM in test [3]; 24.1 µM in test [4]; 15 µM in [6]; 36.8 µM in test [7]. Besides, the TGI is 39.9 µM in test [8]; 13.1 µM in test [9]; over 40.5 µM in test [10]; 3.61 µM in test [11]; 8.76 µM in test [12]; 11.3 µM in [14]. The TGI in test [15] was 3.82 µM; in [16] it was 27.9 µM; in test [17], 8.91 µM; in test [18], 23 µM.

On to `COc1cc(N(CCC#N)CCC#N)ccc1/C(N=Nc1ccccc1C)=N\NC(=O)c1ccc(C)cc1`, for which the TGI in test [1], in test [2], in [3], in test [5], in test [6] and in test [7] was over 100 µM throughout. Besides, the TGI in test [8], in test [9], in test [10], in [11], in test [12] and in [13] was over 100 µM throughout. Besides, the TGI in test [14], in [15], in [16], in test [17] and in [18] was over 100 µM each time.

On to `COc1ccc(C2OC(N)=C(C#N)C3=C2CCCC3C)cc1OC` (stereo not drawn), for which the TGI in [1], in test [2], in [3], in [4], in test [5] and in test [6] was over 100 µM throughout. In addition, the TGI in test [7], in test [8], in test [9], in test [11], in test [12] and in test [14] was over 100 µM each time. In addition, the TGI in test [15], in test [16], in test [17] and in test [18] was over 100 µM in each case.

Take `COC1=CC2C(c3cc4ccccc4n3S(=O)(=O)c3ccccc3)CC1CN2C(=O)OCc1ccccc1` (stereo not drawn): the TGI in test [1] was over 100 µM; in test [2], over 100 µM; in test [3] it was 31.2 µM; in test [4] it was over 100 µM; in [5], 75.9 µM; in [6], 58.7 µM. For the same molecule, the TGI was 98.1 µM in test [7]; 57.7 µM in test [8]; over 100 µM in test [9]; over 100 µM in test [10]; over 100 µM in test [11]; over 100 µM in test [12]. The TGI in test [13] was over 100 µM; in [14], over 100 µM; in test [15], 65.1 µM; in [17], over 100 µM; in [18], 45.2 µM.
